# According to patent US8299048B2, “Hexahydrocyclopentyl[f]indazole sulfonamides and derivatives thereof as selective glucocorticoid receptor modulators” (Merck Sharp & Dohme Corp., priority 2008, dated 2012):
# Molecular target: T1, glucocorticoid receptor (Homo sapiens, UniProt P04150)
# T1 construct: endogenous in cells
# T1 sequence (P04150 1-777): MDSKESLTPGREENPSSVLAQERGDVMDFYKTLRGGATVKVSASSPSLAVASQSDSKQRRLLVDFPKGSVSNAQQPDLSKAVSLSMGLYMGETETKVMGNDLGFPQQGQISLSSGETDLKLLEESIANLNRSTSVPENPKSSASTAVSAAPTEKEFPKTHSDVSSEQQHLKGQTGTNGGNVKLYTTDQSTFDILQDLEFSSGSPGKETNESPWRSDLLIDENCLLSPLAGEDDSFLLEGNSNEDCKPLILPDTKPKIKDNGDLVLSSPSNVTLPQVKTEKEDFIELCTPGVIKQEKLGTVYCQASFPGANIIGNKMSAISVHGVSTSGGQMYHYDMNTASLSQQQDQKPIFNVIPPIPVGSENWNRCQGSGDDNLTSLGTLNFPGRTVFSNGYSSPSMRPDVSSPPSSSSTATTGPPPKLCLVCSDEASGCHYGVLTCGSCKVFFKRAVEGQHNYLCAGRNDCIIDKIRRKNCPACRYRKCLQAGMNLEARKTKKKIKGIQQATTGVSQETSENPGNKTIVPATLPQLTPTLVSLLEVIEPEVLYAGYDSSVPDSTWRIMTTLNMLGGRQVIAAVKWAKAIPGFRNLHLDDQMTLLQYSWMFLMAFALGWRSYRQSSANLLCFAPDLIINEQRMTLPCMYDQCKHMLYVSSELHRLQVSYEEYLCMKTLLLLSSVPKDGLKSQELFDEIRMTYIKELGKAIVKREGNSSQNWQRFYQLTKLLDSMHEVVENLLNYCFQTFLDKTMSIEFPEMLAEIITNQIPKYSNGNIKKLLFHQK
# Experiment: Ligand binding assay (GR BIND)
# How it was run: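 Displacement of tritiated dexamethasone (6 nM trace solution) from receptor in cell supernatant was measured after overnight incubation at 4 °C in molybdate-containing TEGM, pH 7.2, 2% ethanol. Hydroxylapatite pulled down the receptor–ligand complex for filter washing and scintillation counting, with dexamethasone as reference.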
row,Structure (SMILES),Ki
1,"COC(=O)c1ccccc1CS(=O)(=O)N(CCc1ccccc1F)C[C@H]1CCC2=Cc3c(cnn3-c3ccc(F)cc3)C[C@@]21C [Example 188, methyl 2-{[([2-(2-fluorophenyl)ethyl]{[(4αR,5S)-1-(4-fluorophenyl)-4α-methyl-1,4,4α,5,6,7-hexahydrocyclopenta[f]indazol-5-yl]methyl}amino)sulfonyl]methyl}benzoate]",1.2 nM
2,"COC(=O)c1ccccc1S(=O)(=O)N(CCc1ccccc1F)C[C@H]1CCC2=Cc3c(cnn3-c3ccc(F)cc3)C[C@@]21C [Example 189, methyl 2-[([2-(2-fluorophenyl)ethyl]{[(4αR,5S)-1-(4-fluorophenyl)-4α-methyl-1,4,4α,5,6,7-hexahydrocyclopenta[f]indazol-5-yl]methyl}amino)sulfonyl]benzoate]",1.1 nM
3,"C[C@]12Cc3cnn(-c4ccc(F)cc4)c3C=C1CC[C@@H]2CN(CCc1ccccc1F)S(=O)(=O)Cc1ccccc1C(N)=O [Example 190, 2-{[([2-(2-fluorophenyl)ethyl]{[(4αR,5S)-1-(4-fluorophenyl)-4α-methyl-1,4,4α,5,6,7-hexahydrocyclopenta[f]indazol-5-yl]methyl}amino)sulfonyl]methyl}benzamide]",1.5 nM
4,"C[C@]12Cc3cnn(-c4ccc(F)cc4)c3C=C1CC[C@@H]2CN(CC1CCCO1)S(=O)(=O)c1ccc(C(N)=O)cc1 (stereo partly drawn) [Example 191, 4-{[{[(4αR,5S)-1-(4-fluorophenyl)-4α-methyl-1,4,4α,5,6,7-hexahydrocyclopenta[f]indazol-5-yl]methyl}(tetrahydrofuran-2-ylmethyl)amino]sulfonyl}benzamide]",2 nM
5,"C[C@]12Cc3cnn(-c4ccc(F)cc4)c3C=C1CC[C@@H]2CN(Cc1ccccc1F)S(=O)(=O)c1cccc(C(N)=O)c1 [Example 192, 3-[((2-fluorobenzyl){[(4αR,5S)-1-(4-fluorophenyl)-4α-methyl-1,4,4α,5,6,7-hexahydrocyclopenta[f]indazol-5-yl]methyl}amino)sulfonyl]benzamide]",0.9 nM
6,"C[C@]12Cc3cnn(-c4ccc(F)cc4)c3C=C1CC[C@@H]2CN(CCCc1ccccc1)S(=O)(=O)CC(F)(F)F [Example 193, 2,2,2-trifluoro-N-{[(4αR,5S)-1-(4-fluorophenyl)-4α-methyl-1,4,4α,5,6,7-hexahydrocyclopenta[f]indazol-5-yl]methyl}-N-(3-phenylpropyl)ethanesulfonamide]",1 nM
7,"Cc1noc(C)c1S(=O)(=O)N(CCCc1ccccc1)C[C@H]1CCC2=Cc3c(cnn3-c3ccc(F)cc3)C[C@@]21C [Example 194, N-{[(4αR,5S)-1-(4-fluorophenyl)-4α-methyl-1,4,4α,5,6,7-hexahydrocyclopenta[f]indazol-5-yl]methyl}-3,5-dimethyl-N-(3-phenylpropyl)isoxazole-4-sulfonamide]",1.5 nM
8,"C[C@]12Cc3cnn(-c4ccc(F)cc4)c3C=C1CC[C@@H]2CN(CCCc1ccccc1)S(=O)(=O)c1ccccc1F [Example 195, 2-fluoro-N-{[(4αR,5S)-1-(4-fluorophenyl)-4α-methyl-1,4,4α,5,6,7-hexahydrocyclopenta[f]indazol-5-yl]methyl}-N-(3-phenylpropyl)benzenesulfonamide]",0.6 nM
9,"C[C@]12Cc3cnn(-c4ccc(F)cc4)c3C=C1CC[C@@H]2CN(CCc1ccccn1)S(=O)(=O)Cc1ccccc1C(N)=O [Example 196, 2-({[{[(4αR,5S)-1-(4-fluorophenyl)-4α-methyl-1,4,4α,5,6,7-hexahydrocyclopenta[f]indazol-5-yl]methyl}(2-pyridin-2-ylethyl)amino]sulfonyl}methyl)benzamide]",2.7 nM
10,"CC([C@H]1CCC2=Cc3c(cnn3-c3ccc(F)cc3)C[C@@]21C)N(CCc1ccccn1)S(=O)(=O)Cc1cccnc1 (stereo partly drawn) [Example 197, N-{1-[(4αR)-1-(4-fluorophenyl)-4α-methyl-1,4,4α,5,6,7-hexahydrocyclopenta[f]indazol-5-yl]ethyl}-1-pyridin-3-yl-N-(2-pyridin-2-ylethyl)methanesulfonamide]",4.4 nM
11,"C[C@]12Cc3cnn(-c4ccc(F)cc4)c3C=C1CC[C@@H]2CN(CCO)S(=O)(=O)Cc1ccccc1C(N)=O [Example 198, 2-({[{[(4αR,5S)-1-(4-fluorophenyl)-4α-methyl-1,4,4α,5,6,7-hexahydrocyclopenta[f]indazol-5-yl]methyl}(2-hydroxyethyl)amino]sulfonyl}methyl)benzamide]",14.3 nM
12,"CC(C)(O)CN(C[C@H]1CCC2=Cc3c(cnn3-c3ccc(F)cc3)C[C@@]21C)S(=O)(=O)c1ccccc1F [Example 199, 2-fluoro-N-{[(4αR,5S)-1-(4-fluorophenyl)-4α-methyl-1,4,4α,5,6,7-hexahydrocyclopenta[f]indazol-5-yl]methyl}-N-(2-hydroxy-2-methylpropyl)benzenesulfonamide]",2.4 nM
13,"C[C@]12Cc3cnn(-c4ccc(F)cc4)c3C=C1CC[C@@H]2CN(CC1(O)CC1)S(=O)(=O)c1ccccc1F [Example 200, 2-fluoro-N-{[(4αR,5S)-1-(4-fluorophenyl)-4α-methyl-1,4,4α,5,6,7-hexahydrocyclopenta[f]indazol-5-yl]methyl}-N-[(1-hydroxycyclopropyl)methyl]benzenesulfonamide]",1.8 nM
14,"C[C@]12Cc3cnn(-c4ccc(F)cc4)c3C=C1CC[C@@H]2CN(CC1(O)CCCCC1)S(=O)(=O)c1ccccc1F [Example 201, 2-fluoro-N-{[(4αR,5S)-1-(4-fluorophenyl)-4α-methyl-1,4,4α,5,6,7-hexahydrocyclopenta[f]indazol-5-yl]methyl}-N-[(1-hydroxycyclohexyl)methyl]benzenesulfonamide]",2.3 nM
